Data reported in patent US20260248794A1, “METHODS AND MATERIALS FOR PROMOTING BONE GROWTH” (Mayo Foundation for Medical Education and Research, priority 2022, published 2026).
“And” between values parts separate entries of the source, which are not always exact repeats. Identical values can stand only once. “Also recorded” adds a separate entry of the source.

What was measured:
[1] = test system: G610C mice; assay: μCT analysis of G610C mice treated with A-395 for 3 weeks; type: in vivo; conditions: male G610C mice
Experimental: (§1) G610C mice were treat with the EED inhibitor A-395. […] The dose of A-395 was lowered to see if that improved the health of the mice and bone formation. Three 5-week-old male G610C mice were treated with DMSO control or either 50 mg/kg or 100 mg/kg A-395 twice a week by subcutaneous injection for 3 weeks.

[2] = Weight, femur length and toxicity in OI mice treated with A-395 for 5 weeks; type: in vivo; conditions: for Weigh at 3 weeks: 3 weeks of age, prior to treatment; for Weight at 5 weeks: start of treatment; for Weight at 10 weeks: individual OI mice
Experimental: (§2) Five-week-old OI mice (mice harboring the Col1a2 c.2098G>T p.Gly700Cys allele […]) were subcutaneously injected with DMSO (vehicle) or EED inhibitor A-395 (Sigma) at concentrations of either 100 mg/kg or 300 mg/kg twice weekly for 5 weeks.
(§3) 5-week-old OI mice were treated twice weekly with a subcutaneous injection of either vehicle (DMSO) or EED inhibitor A-395 had concentrations of 300 mg/kg or 100 mg/kg. These mice were treated for five weeks and then analyzed for changes in bone structure.
OI mice were weighed at 3 weeks of age prior to treatment, at the start of treatment at 5 weeks, and after 5 weeks of treatment with vehicle (Veh), 300 mg/kg (300), or 100 mg/kg (100) of A-395.

[3] = test system: G610C mice; assay: Three-point bending of G610C mice treated with A-395 for 3 weeks; type: in vivo; conditions: male G610C mice
Source text: Three-point bend fixture was mounted on a servohydrauilic mechanical testing frame (#312, MTS Systems) instrumented with a 100-N capacity load cell (#3397-25, Leebow Products). Femurs were be mounted on supports spanning 8 mm. Point loading was applied to the femur mid-shaft allowing the bones to flex about an axis aligned with the medial-lateral line. Loading was applied under displacement control at a rate of 20 mm/minute until fracture. Force and displacement data were be sampled at 256 Hz. Peak load and peak displacement was be quantified. The stiffness was be calculated from the slope of the linear region of the force displacement curve.
as §1

[4] = test system: MC3T3 cells; assay: Osteogenic differentiation of MC3T3 cells (RT-qPCR of osteogenic genes, alizarin red staining); type: cell-based, murine; conditions: differentiating MC3T3 cells; FIG. 5B-5F
Experimental: (§4) MC3T3 sc4 murine calvarial osteoblasts were purchased from American Type Culture Collection and maintained in α-minimal essential medium without ascorbic acid (Gibco) containing 10% fetal bovine serum (Atlanta Biologicals), 100 units/mL penicillin, and 100 µg/mL streptomycin (Gibco).
For osteogenic differentiation, MC3T3s were seeded in respective maintenance medium at a density of 10,000 cells/cm^2. Next day, osteogenic medium supplemented with vehicle, GSK126 (Xcess Biociences Inc.) or A-395 (Sigma) was added to the cells. Osteogenic medium for MC3T3 cells consisted of 50 μg/mL ascorbic acid (Sigma) and 4 mm β-glycerol phosphate (Sigma). Three days later, old medium was replaced with a fresh batch of osteogenic medium supplemented with vehicle, GSK126, or A-395. On day 6 of differentiation, fresh osteogenic medium without supplements was added and replenished every 2 to 3 days. On day 14, cells were fixed in 10% neutral buffered formalin and stained with 2% alizarin red to visualize calcium deposition.
Total RNA was isolated using the Direct-zol™ RNA kit (Zymo Research) and quantified using the NanoDrop 2000 spectrophotometer (Thermo Fischer Scientific). RNA was then reverse transcribed into cDNA by the SuperScript III First-Strand Synthesis System (Invitrogen). Transcript levels were then measured using the 2^ΔΔct method and normalized GAPDH (set at 100), a housekeeping gene.

[5] = test system: OI mice; assay: μCT analysis of femurs of OI mice treated with A-395 for 5 weeks; type: in vivo
Experimental: as §2
Femurs of injected mice were scanned by μCT Skyscan 1076 (Brunker) at the maximal potencial 60 kV and 167 μA with 0.25 mm thick aluminum filter and at the voxel resolution of 9 μm. The μCT scans were performed over 360° of total rotation with each angular rotation step of 0.7°. […] The trabecular region of interest were selected with reference to the growth plate. The 2D images were created using CTAn siftware package (Skyscan). The 3D μCT models of each femur were created using a 3D reconstruction software package (Skyscan).
as §3

[6] = test system: H3K27me3 in MC3T3 cells; assay: Western blotting for H3K27me3 in MC3T3 cells treated with EED inhibitor; type: cell-based, murine; conditions: A-395 at 0.02-10 mM as printed, FIG. 5A
Experimental: as §4
MC3T3 cells (4,000 cells/cm^2) were plated in 6-well plates in maintenance medium. […] Cells were lysed in radioimmunoprecipitation buffer (150 mm NaCl, 50 mm Tris, pH 7.4, 1% sodium deoxycholate, 0.1% sodium dodecyl sulfate, 1% Triton X-100) supplemented with protease inhibitor mixture (Sigma) and phenylmethylsulfonyl fluoride (Sigma). Lysates were cleared by centrifugation. Protein concentrations were determined by the DC Protein Assay (Bio-Rad). Proteins were resolved by SDS-PAGE and transferred to polyvinylidene difluoride membranes. After blocking in 5% nonfat dry milk for 45 minutes at room temperature, primary antibodies were added overnight at 4° C., followed by secondary antibodies for 1 hour at room temperature. Proteins were visualized using an ECL Prime detection kit.

[7] = test system: OVX mice; assay: μCT analysis of OVX mice treated with MAK683; type: in vivo, C57BL/6 female mice
Experimental: To assess whether EED inhibition could rescue low bone mass due to osteoporosis, ovariectomy (OVX) or sham (Sham) surgery on was performed 15-week-old C57BL/6 female mice with 6 animals per group. On the day of surgery, all mice were imaged using a PIXImus densitometer to measure bone density prior to OVX. Mice were allowed 7 days to recover. Mice in each group were randomized to EED inhibitor treatment or control. These groups were sham/vehicle (Sh−), sham/EED (SH+), OVX/vehicle (OV−), and OVX/EED (OV+). Again, each mouse was imaged to determine bone density after OVX prior to EED treatment. Mice were then injected with vehicle control or 20 mg/kg MAK683 SQ twice weekly for 3 weeks.

[8] = test system: G610C mice; assay: μCT analysis of G610C mice treated with MAK683 for 3 weeks (three mice); type: in vivo; conditions: for bone density / trabecular structure: G610C mice, vs vehicle treated control; for bone parameters (μCT) vs controls: male G610C mice, 3 weeks
Experimental: To determine if MAK683 improved bone formation in OI, three 5-week-old male G610C mice were injected SQ with 50 mg/kg MAK683 twice a week for 3 weeks.

[9] = test system: G610C mice; assay: μCT analysis of large cohort of G610C mice treated with MAK683; type: in vivo; conditions: for bone density (μCT) / trabecular structure: G610C mice; for bone density (μCT): 3 weeks, 9 mice per group; for trabecular structure: vs vehicle treated control; for bone quality parameters: OI mice
Experimental: One day prior to treatment 5-week-old male G610C mice were weighed to determine dosing. MAK683 was dissolved in DMSO for each treatment arm of 5, 10, 20, or 50 mg/kg for selected mice. The volume was adjusted to […] for injection using corn oil. Mice were injected subcutaneously twice weekly for 3 weeks. After 3 weeks, mice were euthanized, and bone was harvested.
To further examine if different doses of MAK683 improved bone formation in 01, SQ nine 5-week-old male G610C mice were injected with 50, 20, 10, or 5 mg/kg MAK683 twice a week for 3 weeks.

[10] = individual OI mice of the 100 mg/kg group, in g (unit assumed)
[11] = individual OI mice of the 300 mg/kg group, in g (unit assumed)
[12] = 100 mg/kg, vs vehicle, 100 mg/kg
[13] = 300 mg/kg, vs vehicle, 300 mg/kg
[14] = 20 mg/kg, vs OVX vehicle treated control

CN(C)C1CN(C2CCc3cccc(F)c32)CC1c1ccc(N2CCN(S(C)(=O)=O)CC2)cc1 (stereo not drawn) [A-395, 1-(7-fluoro-2,3-dihydro-1H-inden-1-yl)-N,N-dimethyl-4-[4-(4-methylsulfonylpiperazin-1-yl)phenyl]pyrrolidin-3-amine]
bone formation (μCT) ([1]; 50 mg/kg SC twice a week): increase in bone formation
bone formation (μCT) ([1]; 100 mg/kg SC twice a week): increase in bone formation
bone (μCT) vs controls ([1]; 300 mg/kg SQ twice a week): less bone than controls
health of treated mice at end of protocol ([1]; 300 mg/kg SQ twice a week): losing weight and appeared sickly
toxicity to the mouse ([2]; OI mice, 300 mg/kg SC twice weekly, 5 weeks): toxic
weight (change vs vehicle) ([2]; OI mice, 300 mg/kg or 100 mg/kg, after 5 weeks of treatment, vs vehicle): no significant changes
Weigh at 3 weeks [2, 10]: 10.5 and 10.2 and 9.6
Weight at 5 weeks [2, 10]: 21.3 and 21.6 and 19.9
Weigh at 3 weeks [2, 11]: 11.1 and 11.9 and 14.0
Weight at 5 weeks [2, 11]: 20.9 and 22.6 and 24.0
Weight at 10 weeks ([2]; 100 mg/kg, after 5 weeks of treatment, 100 mg/kg): 26.5 (2×) and 28.0
Weight at 10 weeks ([2]; 300 mg/kg, after 5 weeks of treatment, 300 mg/kg, in g (unit assumed)): 26.6 and 27.8 and 29.0
stiffness (three-point bending) ([3]; 50 mg/kg SC twice a week): improved stiffness
stiffness (three-point bending) ([3]; 100 mg/kg SC twice a week): improved stiffness
osteogenic differentiation (osteogenic genes, alizarin red staining) [4]: stimulates osteogenesis; also recorded: more potent at stimulating osteogenic differentiation
bone surface density ([5]; 100 mg/kg): increase
bone surface to volume ratio ([5]; 100 mg/kg): decrease
intersection surface ([5]; 100 mg/kg): no change
trabecular number ([5]; 100 mg/kg): increase
trabecular pattern ([5]; 100 mg/kg): decrease
trabecular thickness ([5]; 100 mg/kg): increase
bone formation within the femurs (μCT) ([5]; 100 mg/kg SC twice weekly): robust bone formation
bone surface ([5]; 100 mg/kg, vs vehicle): increase
trabecular bone ([5]; 100 mg/kg, vs vehicle): increase in trabecular bone
bone volume [5, 12]: increased
percent bone per volume [5, 12]: increased
tissue surface [5, 12]: increased
tissue volume [5, 12]: increased
bone surface to volume ratio ([5]; 300 mg/kg): unchanged
intersection surface ([5]; 300 mg/kg): down
trabecular number ([5]; 300 mg/kg): decrease
trabecular pattern ([5]; 300 mg/kg): slight decrease
trabecular thickness ([5]; 300 mg/kg): slight decrease
bone mineralization (μCT) ([5]; 300 mg/kg SC twice weekly): loss of bone mineralization
bone density ([5]; 300 mg/kg, FIG. 11A): down
trabecular bone ([5]; 300 mg/kg, vs vehicle): loss of trabecular bone
bone surface [5, 13]: decrease and down
bone volume [5, 13]: decreased
percent bone per volume [5, 13]: decreased
tissue volume [5, 13]: increased
H3K27me3 (western blotting) [6]: reduced H3K27me3 in a concentration-dependent manner

CS(=O)(=O)c1ccc(-c2cnc(NCc3ccco3)n3cnnc23)cc1 [EED226, n-(2-furanylmethyl)-8-[4-(methylsulfonyl)phenyl]-1,2,4-triazolo[4,3-c]pyrimidin-5-amine]
H3K27me3 (western blotting) [6]: reduced H3K27me3 in a concentration-dependent manner

Cc1ncccc1-c1cnc(NCc2c(F)ccc3c2CCO3)n2cnnc12 [MAK683, N-[(5-fluoro-2,3-dihydro-1-benzofuran-4-yl)methyl]-8-(2-methylpyridin-3-yl)-[1,2,4]triazolo[4,3-c]pyrimidin-5-amine]
bone loss (μCT) ([7]; 20 mg/kg SQ twice weekly, 3 weeks): prevented bone loss
bone density [7, 14]: significant intention
trabecular number [7, 14]: significant intention
bone density ([8]; 20 mg/kg): significant increase
trabecular structure ([8]; 20 mg/kg): significant increase
bone density ([8]; 50 mg/kg): significant increase
trabecular structure ([8]; 50 mg/kg): significant increase
bone parameters (μCT) vs controls ([8]; 20 mg/kg SQ twice a week): improvement in essentially all bone parameters
bone parameters (μCT) vs controls ([8]; 50 mg/kg SQ twice a week): improvement in many bone parameters
bone density (μCT) ([9]; 5 mg/kg SQ twice a week): possible minor improvement
bone density (μCT) ([9]; 10 mg/kg SQ twice a week, 10 mg/kg): visual improvement; also recorded: significant increase
trabecular structure ([9]; 10 mg/kg): significant increase
bone density (μCT) ([9]; 20 mg/kg SQ twice a week, 20 mg/kg): visual improvement; also recorded: significant increase
trabecular structure ([9]; 20 mg/kg): significant increase
bone density (μCT) ([9]; 50 mg/kg SQ twice a week): possible minor improvement
bone parameters (μCT) vs controls ([9]; G610C mice, 50, 20, 10, or 5 mg/kg, FIG. 17B-M): improvement in many bone parameters
bone quality parameters ([9]; 5 mg/kg): trend in increased
bone quality parameters ([9]; 50 mg/kg): trend in increased
